Experimental findings from paper PMC6792352, “Limited Chemical Structural Diversity Found to Modulate Thyroid Hormone Receptor in the Tox21 Chemical Library” (Environmental Health Perspectives, 2019) are described below.

The structures appear in SMILES notation. Counter-ions that a name gives are not always drawn. A value given as a limit tells only on which side of the number the result lay.

The first data set in a line: in vitro. The settings on record: rat, gh3-tre-luc cells, AC50 (uM) modified / 1000.
The CC50 is the concentration that lowers cell viability or growth by half. Read a high CC50 as better tolerance by the cells. The compound `COc1ccc(/C=C/C(=O)c2ccc(OC)cc2OC)cc1` [Metochalcone] came in with a CC50 at 24 h of 46.1 µM.

Take `C[N+](C)(C)CCOC(=O)C(O)(c1ccccc1)c1ccccc1` [Metocinium iodide]: the CC50 at 24 h is more than 50 µM.

Compound `CCN(CC)CCNC(=O)c1cc(Cl)c(N)cc1OC` [Metoclopramide] had a half-maximal cytotoxic concentration (CC50) at 24 h of more than 50 µM.

As for `COc1ccc2cc1Oc1cc3c(cc1OC)CC[N+](C)(C)[C@H]3Cc1ccc(cc1)Oc1c(OC)c(OC)cc3c1[C@@H](C2)[N+](C)(C)CC3` [Metocurine iodide], the CC50 at 24 h is more than 50 µM.

As for `CCc1cccc(C)c1N(C(=O)CCl)C(C)COC` (centres unmarked) [Metolachlor], the cytotoxic concentration (CC50) at 24 h is more than 90 µM.

Consider `Cc1ccccc1N1C(=O)c2cc(S(N)(=O)=O)c(Cl)cc2NC1C` (centres unmarked) [Metolazone], for which the half-maximal cytotoxic concentration (CC50) at 24 h was more than 50 µM.

For the compound `COCCc1ccc(OCC(O)CNC(C)C)cc1` (centres unmarked) [Metoprolol tartrate], the CC50 at 24 h is more than 50 µM.

In the case of `COC(=O)[C@H]1[C@H]2C[C@@H]3c4[nH]c5cc(OC)ccc5c4CCN3C[C@H]2C[C@H](OC)[C@@H]1OC` [Metoserpate hydrochloride], the CC50 at 24 h is more than 50 µM.

As to `COc1ccc2c(c1)c1c3n2CCN(C)C3=NCC1` [Metralindole], the half-maximal cytotoxic concentration (CC50) at 24 h is more than 50 µM.

In turn, `CSc1nnc(C(C)(C)C)c(=O)n1N` [Metribuzin] displayed a CC50 at 24 h of more than 90 µM.

The compound `Cc1ccccc1CNc1ncnc2c1ncn2[C@@H]1O[C@H](CO)[C@@H](O)[C@H]1O` [Metrifudil] showed a CC50 at 24 h of more than 50 µM.

For the compound `CC(=O)Nc1c(I)c(C(=O)N[C@H]2C(O)O[C@H](CO)[C@@H](O)[C@@H]2O)c(I)c(N(C)C(C)=O)c1I` (some centres unmarked) [Metrizamide], the cytotoxic concentration (CC50) at 24 h is more than 20 µM.

Compound `CC(=O)Nc1c(I)c(C(=O)O)c(I)c(N(C)C(C)=O)c1I` [Metrizoate sodium] gave a CC50 at 24 h of more than 50 µM.

For the compound `Cc1ncc([N+](=O)[O-])n1CCO` [Metronidazole], the CC50 at 24 h was more than 50 µM.

`COC(=O)c1ccccc1S(=O)(=O)NC(=O)Nc1nc(C)nc(OC)n1` [Metsulfuron-methyl] had a cytotoxic concentration (CC50) at 24 h of more than 90 µM.

Regarding `CC(C)(C(=O)c1cccnc1)c1cccnc1` [Metyrapone], the CC50 at 24 h was more than 20 µM.

`C[C@](N)(Cc1ccc(O)cc1)C(=O)O` [Metyrosine] showed a CC50 at 24 h of more than 50 µM.

The compound `CC[C@H](C)C(=O)O[C@H]1CCC=C2C=C[C@H](C)[C@H](CC[C@@H]3C[C@@H](O)CC(=O)O3)[C@H]21` [Mevastatin] yielded a 50% cytotoxic concentration (CC50) at 24 h of more than 50 µM.

With `COc1ccc(C(=O)c2ccc(C)cc2)c(O)c1` [Mexenone], the CC50 at 24 h was more than 90 µM.

On to `Cc1cccc(C)c1OCC(C)N` (centres unmarked) [Mexiletene hydrochloride], for which the cytotoxic concentration (CC50) at 24 h is more than 50 µM.

On to `CC1(C)S[C@@H]2[C@H](NC(=O)[C@H](NC(=O)N3CCN(S(C)(=O)=O)C3=O)c3ccccc3)C(=O)N2[C@H]1C(=O)O` [Mezlocillin], for which the CC50 at 24 h is more than 50 µM.

`CN1CCN2c3ccccc3Cc3ccccc3C2C1` (centres unmarked) [Mianserin]: the CC50 at 24 h was determined as 20.6 µM.

In the case of `COCC(=O)O[C@]1(CCN(C)CCCc2nc3ccccc3[nH]2)CCc2cc(F)ccc2[C@@H]1C(C)C` [Mibefradil dihydrochloride], the CC50 at 24 h came out at 1.9 µM.

Consider `Clc1ccc(COC(Cn2ccnc2)c2ccc(Cl)cc2Cl)c(Cl)c1` (centres unmarked) [Miconazole], for which the cytotoxic concentration (CC50) at 24 h turned out to be 15 µM.

Consider `CNC[C@@H]1CC[C@@H](N)[C@@H](O[C@H]2[C@H](O)[C@@H](O[C@H]3OC[C@](C)(O)[C@H](NC)[C@H]3O)[C@H](N)C[C@@H]2N)O1` [Micronomicin sulfate], for which the CC50 at 24 h was more than 50 µM.

As to `O=C(O)[C@H]1CN(C/C=C/P(=O)(O)O)CCN1` [Midafotel], the 50% cytotoxic concentration (CC50) at 24 h was more than 50 µM.

As to `Cc1ncc2n1-c1ccc(Cl)cc1C(c1ccccc1F)=NC2` [Midazolam hydrochloride], the 50% cytotoxic concentration (CC50) at 24 h was more than 50 µM.

`CCC(=O)O[C@@H]1CC(=O)O[C@H](C)C/C=C/C=C/[C@H](O)[C@H](C)C[C@H](CC=O)[C@H](O[C@@H]2O[C@H](C)[C@@H](O[C@H]3C[C@@](C)(O)[C@@H](OC(=O)CC)[C@H](C)O3)[C@H](N(C)C)[C@H]2O)[C@H]1OC` [Midecamycin] registered a CC50 at 24 h of more than 20 µM.

As to `COP(=O)(OC)OC(c1ccc(Cl)cc1)P(=O)(OC)OC` (centres unmarked) [Mifobate], the cytotoxic concentration (CC50) at 24 h is more than 50 µM.

As to `OCCN1C[C@H](O)[C@@H](O)[C@H](O)[C@H]1CO` [Miglitol], the CC50 at 24 h was more than 50 µM.

`CCCCN1C[C@H](O)[C@@H](O)[C@H](O)[C@H]1CO` [Miglustat]: the CC50 at 24 h is more than 50 µM.

With `Cc1[nH]c(=O)c(C#N)cc1-c1ccncc1` [Milrinone], the 50% cytotoxic concentration (CC50) at 24 h was more than 90 µM.

As for `CCCCCCCCCCCCCCCCOP(=O)([O-])OCC[N+](C)(C)C` [Miltefosine], the CC50 at 24 h was more than 50 µM.

On to `Cc1cc(-c2ccccc2)nnc1NCCN1CCOCC1` [Minaprine dihydrochloride], for which the CC50 at 24 h was more than 50 µM.

`CN(C)c1ccc(O)c2c1C[C@H]1C[C@H]3[C@H](N(C)C)C(O)=C(C(N)=O)C(=O)[C@@]3(O)C(O)=C1C2=O` [Minocycline hydrochloride] displayed a CC50 at 24 h of more than 90 µM.

For `O=P(O)(O)C(O)(Cc1cnc2ccccn12)P(=O)(O)O` [Minodronic acid], the CC50 at 24 h was more than 50 µM.

Compound `CCCCCCCCCCCCCCCCCCNC(=O)OC1CCN(C(=O)OC[C@H](COC(=O)N(Cc2cccc[n+]2CC)C(=O)c2ccccc2OC)OC)CC1` [Minopafant] displayed a half-maximal cytotoxic concentration (CC50) at 24 h of 13.6 µM.

With `N=c1nc(N2CCCCC2)cc(N)n1O` [Minoxidil], the CC50 at 24 h was more than 50 µM.

As for `CCCCCCCCCCCCCC[n+]1ccc(C)cc1` [Miripirium chloride], the cytotoxic concentration (CC50) at 24 h came out at 7.5 µM.

As for `CN1CCN2c3ncccc3Cc3ccccc3C2C1` (centres unmarked) [Mirtazapine], the CC50 at 24 h was more than 50 µM.

As for `O=C(O)[C@H](CC(=O)N1C[C@H]2CCCC[C@H]2C1)Cc1ccccc1` [Mitiglinide calcium dihydrate], the cytotoxic concentration (CC50) at 24 h is more than 50 µM.

The compound `CO[C@@]12[C@H](COC(N)=O)C3=C(C(=O)C(C)=C(N)C3=O)N1C[C@@H]1N[C@@H]12` [Mitomycin C] came in with a CC50 at 24 h of 2.52 µM. That is a single-digit micromolar value.

The compound `O=C1c2c(O)ccc(O)c2C(=O)c2c(NCCNCCO)ccc(NCCNCCO)c21` [Mitoxantrone dihydrochloride] had a CC50 at 24 h of 0.988 µM.

Regarding `COc1cc2c(cc1OC)[C@@H](Cc1cc(OC)c(OC)c(OC)c1)[N+](C)(CCCOC(=O)CC/C=C/CCC(=O)OCCC[N+]1(C)CCc3cc(OC)c(OC)cc3[C@H]1Cc1cc(OC)c(OC)c(OC)c1)CC2` (some centres unmarked) [Mivacurium chloride], the half-maximal cytotoxic concentration (CC50) at 24 h was more than 50 µM.

The compound `CN(c1nccc(=O)[nH]1)C1CCN(c2nc3ccccc3n2Cc2ccc(F)cc2)CC1` [Mizolastine] returned a CC50 at 24 h of more than 50 µM.

Turning to `NC(=O)c1ncn([C@@H]2O[C@H](CO)[C@@H](O)[C@H]2O)c1O` [Mizoribine], the half-maximal cytotoxic concentration (CC50) at 24 h was more than 50 µM.

`O=C(NCCN1CCOCC1)c1ccc(Cl)cc1` [Moclobemide]: the CC50 at 24 h is more than 50 µM.

Turning to `CCOC(=O)[C@H](CCc1ccccc1)N[C@@H](C)C(=O)N1Cc2cc(OC)c(OC)cc2C[C@H]1C(=O)O` [Moexipril hydrochloride], the CC50 at 24 h was more than 50 µM.

In turn, `COc1ccc(-c2noc(CC(=O)O)c2-c2ccc(OC)cc2)cc1` [Mofezolac] gave a CC50 at 24 h of more than 50 µM.

`CCSC(=O)N1CCCCCC1` [Molinate] came in with a CC50 at 24 h of more than 90 µM.

Regarding `CCc1c(C)[nH]c2c1C(=O)C(CN1CCOCC1)CC2` (centres unmarked) [Molindone hydrochloride], the cytotoxic concentration (CC50) at 24 h is more than 20 µM.

`COc1ccc(C(=O)N2CCN(CC(=O)N3CCOCC3)CC2)cc1` [Molracetam]: the CC50 at 24 h is more than 50 µM.

The compound `CCOC(=O)[N-]c1cn(N2CCOCC2)n[o+]1` [Molsidomine] had a half-maximal cytotoxic concentration (CC50) at 24 h of more than 20 µM.

In turn, `C[C@@H]1C[C@H]2[C@@H]3CCC4=CC(=O)C=C[C@]4(C)[C@@]3(Cl)[C@@H](O)C[C@]2(C)[C@@]1(OC(=O)c1ccco1)C(=O)CCl` [Mometasone furoate] came in with a half-maximal cytotoxic concentration (CC50) at 24 h of more than 20 µM.

As to `O=C(CCCN1CCN(c2ccc(F)cc2)CC1)NC1c2ccccc2CSc2ccccc21` (centres unmarked) [Monatepil], the CC50 at 24 h was determined as 11.9 µM.

Compound `O=C(O)c1ccccc1C(=O)OCc1ccccc1` [Monobenzyl phthalate] registered a cytotoxic concentration (CC50) at 24 h of more than 90 µM.

As for `CCCCOC(=O)c1ccccc1C(=O)O` [Monobutyl phthalate], the half-maximal cytotoxic concentration (CC50) at 24 h is more than 90 µM.

For the compound `C[C@H]1C(=O)O[C@@H]2CCN3CC=C(COC(=O)[C@](C)(O)[C@]1(C)O)[C@H]23` [Monocrotaline], the CC50 at 24 h is more than 90 µM.

Take `COC(=O)c1ccccc1C(=O)O` [Monomethyl phthalate]: the CC50 at 24 h is more than 90 µM.

`COC(=O)CCC(=O)O` [Monomethyl succinate] had a CC50 at 24 h of more than 90 µM.

In the case of `Cc1ncc(C[n+]2csc(CCOP(=O)(O)O)c2C)c(N)n1` [Monophosphothiamine], the half-maximal cytotoxic concentration (CC50) at 24 h was more than 50 µM.

Staying with this data set, now noted: rat, gh3-tre-luc cells, AC50 (uM) modified / 1000, Tox21_110001=Tox21_110988; viability, 1 nM T3 present, 24 h.
With `COC(=O)c1cncn1C(C)c1ccccc1` (centres unmarked) [Metomidate hydrochloride], the CC50 at 24 h was more than 50 µM.

The same data set, now with this note: rat, gh3-tre-luc cells, AC50 (uM) modified / 1000, Tox21_110001=Tox21_111470; viability, 1 nM T3 present, 24 h.
With `NC(=O)C[S+]([O-])C(c1ccccc1)c1ccccc1` (centres unmarked) [Modafinil], the CC50 at 24 h is more than 50 µM.

Staying with this data set, now noted: rat, gh3-tre-luc cells, AC50 (uM) modified / 1000, Tox21_110001=Tox21_200649; viability, 1 nM T3 present, 24 h.
For `CNC(=O)Oc1cc(C)c(N(C)C)c(C)c1` [Mexacarbate], the cytotoxic concentration (CC50) at 24 h is more than 90 µM.

The same data set, now with this note: rat, gh3-tre-luc cells, AC50 (uM) modified / 1000, Tox21_110001=Tox21_300592; viability, 1 nM T3 present, 24 h.
Turning to `ClC1(Cl)C2(Cl)C3(Cl)C4(Cl)C(Cl)(Cl)C5(Cl)C3(Cl)C1(Cl)C5(Cl)C24Cl` (centres unmarked) [Mirex], the cytotoxic concentration (CC50) at 24 h is more than 90 µM.

The data set is the same for the next values; noted with them: rat, gh3-tre-luc cells, AC50 (uM) modified / 1000, Tox21_110001=Tox21_300806; viability, 1 nM T3 present, 24 h.
The compound `CNC(=O)/C=C(\C)OP(=O)(OC)OC` [Monocrotophos] showed a CC50 at 24 h of more than 90 µM.

The same data set, now with this note: rat, gh3-tre-luc cells, AC50 (uM) modified / 1000, Tox21_110001=Tox21_301360; viability, 1 nM T3 present, 24 h.
`CON(C)C(=O)Nc1ccc(Cl)cc1` [Monolinuron] displayed a 50% cytotoxic concentration (CC50) at 24 h of more than 90 µM.

The data set is the same for the next values; noted with them: rat, gh3-tre-luc cells, AC50 (uM) modified / 1000, Tox21_110001=Tox21_301964; viability, 1 nM T3 present, 24 h.
In turn, `CON(C)C(=O)Nc1ccc(Br)cc1` [Metobromuron] had a cytotoxic concentration (CC50) at 24 h of more than 90 µM.
